In patent US11555031B2, “Compounds and methods for regulating insulin secretion” (The Broad Institute, Inc., priority 2017, dated 2023):

test system: INS-1E cells; experiment: Luciferase Insulin Secretion Assay (proinsulin-Gaussia luciferase reporter); format: cell-based, rat; settings: INS-1E cells; 2.8 mM vs 16.7 mM glucose
Text: A high-throughput luminescent insulin secretion assay was developed and performed to identify compounds that amplified insulin secretion only in the presence of a permissive glucose environment (FIG. 3). The assay used in compound screening is described in International Patent Publication No. WO2013070796A3, PCT/US2012/063982, and in Burns et al., High-Throughput Luminescent Reporter of Insulin Secretion for Discovering Regulators of Pancreatic Beta-Cell Function. Cell Metab. 2015 Jan. 6; 21(1):126-37.
The assay is a luminescent insulin secretion assay created by inserting Gaussia luciferase within the C-peptide portion of the insulin prohormone. Gaussia luciferase was chosen because of its small size and bright luciferase signal. To ensure full activity of the luciferase, a version was used that was codon-optimized for expression in mammalian cells. The enzyme was flanked with additional cleavage sites for prohormone convertase 2 (PC2), such that no extra amino acids should be present on the ends of the enzyme after processing within the vesicles (FIG. 4). Rat (INS-1E; Merglen et al., 2004) beta-cell lines stably expressing the reporter construct were generated. Assays using this cell type are referred to herein as Luciferase Insulin Secretion Assay.
A search for glucose-dependent insulin secretagogues was conducting by screening 384,216 compounds at a single concentration (10 μM) in duplicate using the Luciferase Insulin Secretion Assay, to identify those that increase insulin secretion only in the presence of high glucose (11.1 mM) (FIG. 6). These assays were performed in 1536 well format. A Z′ factor of 0.35 was obtained with respect the positive control (300 μM IBMX). The cutoff value selected was 45% activation, which was 3-4 standard deviations above background (solid uppermost line; FIG. 6).
For standard secretion assays, INS-1E cells were plated in 96-well format, preincubated for 1 hr in Krebs Ringer Buffer (KRB) with 2.8 mM glucose, and then stimulated for 1 hr in fresh KRB containing varying amounts of glucose and compounds. Insulin or C-peptide concentration was determined using an ELISA (Mercodia), following the manufacturer's protocol. Luciferase activity was determined from the same samples by adding the coelenterazine substrate to the supernatant to a final concentration of 10 μM and reading on a standard plate reader (BioTek).
INS-1E cells were expanded to 80% confluence in their growth medium, washed once in PBS, and preincubated for 1 hr at 37° C. in KRB with 2.8 mM glucose. Cells were then dissociated, spun at 300×g for 2 min, resuspended in fresh KRB without glucose, and filtered through 40 μm mesh (Becton Dickinson). Next, the cells were counted and diluted in KRB to 1×10^6 cells per ml, and glucose was added as required for each experiment. Cells were then seeded in 384-well format, 3×10^4 cells in 30 μl per well, using a Multidrop Combi device (Thermo Scientific). Compounds were pinned into each well using a Vario robot (CyBio) to a final concentration of 30 μM, and the plates were then incubated for 2 hr at 37° C. For assays involving a transfer step, the plates were then centrifuged at 300×g for 2 min, and 20 μl of supernatant was transferred to a new 384-well plate. Coelenterazine substrate was then added to a final concentration of 10 μM, and luciferase activity was determined using a standard plate reader (BioTek).

Row | SMILES | glucose-dependent (glucose-stimulated) insulin secretion, luciferase reporter
1 | COc1ccc(CCc2nc3cc(-c4c(C)noc4C)ccc3n2C[C@H](C)N2CCOCC2)cc1Cl [CBP30, reference compound] | neither of the known bromodomain inhibitors (PF1 or CBP30) affect secretion to the extent of Compound 8
2 | Cc1cccc(C)c1NC(=O)c1ccc(OCc2c(C)noc2C)cc1 [Compound 16] | some positive effect on secretion
3 | Cc1ccccc1NC(=O)c1ccc(OCc2c(C)noc2C)cc1 [Compound 17] | some positive effect on secretion

same assay, conditions: glucose dependence of insulin secretion; Z-score in the presence of 16.7 mM glucose

Row | SMILES | Activity
4 | Cc1cccc(-c2cnc(-c3ccc(NCc4c(C)noc4C)cc3)[nH]2)c1C [Compound 27] | Inactive
5 | Cc1cccc(-c2cc(-c3ccc(NCc4c(C)noc4C)cc3)[nH]n2)c1C [Compound 28] | Inactive
6 | Cc1cccc(-c2ncc(-c3ccc(NCc4c(C)noc4C)cc3)[nH]2)c1C [Compound 29] | Inactive
7 | Cc1cccc(-c2nc(C)c(-c3ccc(NCc4c(C)noc4C)cc3)[nH]2)c1C [Compound 30] | Inactive
8 | Cc1cc(NCc2c(C)noc2C)ccc1-c1cnc(-c2cccc(C)c2C)[nH]1 [Compound 31] | Inactive
9 | Cc1cccc(NS(=O)(=O)c2ccc(NCc3c(C)noc3C)cc2)c1C [Compound 32] | Inactive
10 | Cc1cccc(NC(c2ccc(NCc3c(C)noc3C)cc2)C(F)(F)F)c1C (stereo not drawn) [Compound 33] | Inactive
11 | Cc1cccc(-c2nc3cc(NCc4c(C)noc4C)ccc3[nH]2)c1C [Compound 34] | Inactive
12 | Cc1cccc(-c2noc(-c3ccc(NCc4c(C)noc4C)cc3)n2)c1C [Compound 35] | Inactive
13 | Cc1ccc2nc(-c3ccc(NCc4c(C)noc4C)cc3)[nH]c2c1C [Compound 36] | Inactive
14 | Cc1cccc(NC(=O)c2ccc(OCc3c(C)noc3C)cn2)c1C [Compound 45] | Inactive
15 | Cc1cccc(NC(=O)c2ccc(OCc3c(C)noc3C)cc2O)c1C [Compound 46] | Inactive
16 | Cc1cccc(NC(=O)c2ccc(OCc3cnoc3)cc2)c1C [Compound 47, N-(2,3-Dimethyl-phenyl)-4-(isoxazol-4-ylmethoxy)-benzamide] | Inactive
17 | Cc1cccc(NC(=O)c2ccc(OCc3c(C)cnn3C)cc2)c1C [Compound 48] | Inactive
18 | Cc1cccc(NC(=O)c2ccc(OCc3c(C)ccnc3C)cc2)c1C [Compound 50, N-(2,3-Dimethyl-phenyl)-4-(2,4-dimethyl-pyridin-3-ylmethoxy)-benzamide] | Inactive
19 | CC1=CC(=O)Cc2cc(COc3ccc(C(=O)Nc4cccc(C)c4C)cc3)ccc21 [Compound 51] | Partial activity, Lost Glucose Dependence
20 | Cc1cccc(NC(=O)c2ccc(OC(C)c3c(C)noc3C)cc2)c1C (stereo not drawn) [Compound 52] | Inactive
21 | Cc1cccc(NC(=O)c2ccc(OCc3cn(C)nc3C)cc2)c1C [Compound 53] | Inactive
22 | Cc1cccc(NC(=O)c2ccc(OCc3c(C)nn(C)c3C)cc2)c1C [Compound 54] | Inactive
23 | Cc1cccc(NC(=O)c2ccc(/C=C\c3c(C)noc3C)cc2)c1C [Compound 55 (cis)] | Inactive
24 | Cc1cccc(NC(=O)c2ccc(/C=C/c3c(C)noc3C)cc2)c1C [Compound 55] | Partial activity, Lost Glucose Dependence
25 | Cc1cccc(NC(=O)c2ccc(N(C)Cc3c(C)noc3C)cc2)c1C [Compound 56] | Inactive
26 | Cc1cccc(NC(=O)c2ccc(CNc3c(C)noc3C)cc2)c1C [Compound 57, 4-[(3,5-Dimethyl-isoxazol-4-ylamino)-methyl]-N-(2,3-dimethyl-phenyl)-benzamide] | Inactive
27 | Cc1cccc(NC(=O)c2ccc(CN(C)c3c(C)noc3C)cc2)c1C [Compound 58, 4-{[(3,5-Dimethyl-isoxazol-4-yl)-methyl-amino]-methyl}-N-(2,3-dimethyl-phenyl)-benzamide] | Inactive
